Data published in US20050020544A1, “Bicyclic CB2 cannabinoid receptor ligands” (priority 2002, published 2005).
Where two headings read alike, the source gives them in different places.

Experiments:
human CB2 receptor = human CB2 receptor (Homo sapiens, UniProt P34972); assay: biochemical; type: binding; parameters: purchased Perkin Elmer/NEN; host or cells: CHO cells, stably transfected (membranes); settings: for CB2/CB1 affinity ratio: IC50 CB1/IC50 CB2; for IC50: displacement of [3H]WIN 55212-2, hCB2 CHO membranes
Description: (§1) In the present invention, binding affinity is represented by the IC50 value, namely the concentration of a test compound that will displace 50% of a radiolabeled agonist from the CB receptors. […] Preferably these ratios will be obtained for human CB1 and CB2 receptors. The selectivity toward CB2, denoted CB2/CB1 affinity, is calculated as the IC50 value obtained by the test compound for the displacement of the CB1 specific radioligand divided by the IC50 value obtained for the displacement of the CB2 specific radioligand, i.e. the IC50 CB1/IC50 CB2.
The affinities of the novel bicyclic analogs to the CB2 receptor were determined by their ability to displace [^3H]WIN 55212-2 from the receptor in membranes derived from hCB2 stably transfected CHO cells (Perkin Elmer/NEN). Membranes were diluted in assay buffer (10 mM HEPES, 1 mM MgCl2, 1 mM EDTA, 0.3 mg/ml BSA, pH=7.4) to 500 μg protein/ml. 50 μl of diluted membranes (25 μg) were incubated with 0.8 nM of [^3H]WIN 55212-2 in the presence or absence of several concentrations of the bicyclic test compounds in a total volume of 1 ml. Tested compounds were dissolved and diluted as previously described for the hCB1 assay. Non-specific binding was measured by the addition of 10 μM CP 55940. Following 40 minutes incubation at 30° C. reactions were filtered as previously described. Filters for all binding assays were counted in a β-counter and log of analog concentration versus % of binding was plotted. IC50 values were extrapolated from this plot.
(§2) Binding to CB1 is measured by competitive inhibition of [^3H]CP55940 in HEK-293 cells stably transfected with the human CB1 receptor gene. Binding to CB2 is measured by competitive inhibition of [^3H]WIN55212-2 in CHO cells stably transfected with the human CB2 receptor gene.

human CB1 receptor = molecular target: T1, human CB1 receptor (Homo sapiens, UniProt P21554); assay: biochemical; type: binding; settings: displacement of [3H]CP55940, hCB1 HEK-293 membranes; read-out: CB1 IC50
T1 construct: purchased Perkin Elmer/NEN; host or cells: HEK-293 cells, stably transfected (membranes)
Description: as §1
The CB1 binding assays were performed by testing the ability of the new compounds to displace [^3H]CP55940 from the CB1 receptor on membranes derived from hCB1 stably transfected HEK-293 cells (Perkin Elmer/NEN). Membranes were diluted in the assay buffer (50 mM Tris-HCl, 2.5 mM EDTA, 5 mM MgCl2, 1 mg/ml BSA, pH=7.4) to 500 μg protein/ml. 50 μl of diluted membranes (25 μg) were incubated with [^3H]CP55940 in the presence or absence of the bicyclic test compounds in a total volume of 0.5 ml. Tested compounds were dissolved in DMSO and diluted in the assay buffer to a final concentration of 0.1% solvent. Control samples were added with identical amount of vehicle. Non-specific binding was measured by the addition of 10 μM of WIN 55212-2. Following 1.5 hours incubation at 30° C. reactions were filtered through Whatman 934A/H filters (presoaked with 0.1% Polyethylenimine (PEI)).
as §2

Male Sprague Dawley rats = assay: Inflammatory pain: carrageenan paw edema in rats, thermal and mechanical stimuli; type: in vivo, rat; settings: for ΔLT (thermal stimulus) / ΔForce (tactile stimulus): 10 mg/kg i.p., three hours; for analgesic activity of the antagonists by themselves: 5 mg/kg i.p.
Description: Male Sprague Dawley rats (200 g average body weight, Harlan, Israel) are transiently sedated by placement on dry ice for the duration of the injections. […] Before induction of inflammatory pain and three hours after injection, the animals reactions to pain stimuli were tested in two systems. The first stimulus was thermal and assessed by the Plantar Test according to Hargreaves, using Ugo Basile Model 7370. The scale was set to an intensity of 50 arbitrary units. The latency time till the animal lift a paw as a reaction to the thermal stimulus was recorded for both the inflamed and non-inflamed hind paws. The second stimulus was mechanical (tactile) and assessed using a Dynamic Plantar Sesthesiomether (Ugo Basile Model 73400-002).
The results are measured as the differences between the two hind paws at time 0 and 3 hours both as ALT, for the latency time in the thermal part of the study, and as ΔForce, for the mechanical part of the study.

Female Balb/c mice = test system: Female Balb/c mice
Description: The purpose of this study is to test in vivo the anti-inflammatory activity of the compounds in paw edema induced by injection of 1% carrageenan in the animal hind paw. Female Balb/c mice (20 g average body weight, Harlan, Israel) are anesthetized with a combination of xylazine and pentobarbitone diluted in sterile saline, 15 and 6 mg/kg i.p. respectively. Anesthetized mice are injected subcutaneously, in the subplantar region of one (right) paw with 0.05 ml of 1% w/v Carrageenan in sterile water. […] The test compounds, including known anti-inflammatory controls, are dissolved in CREMOPHOR EL®:ethanol and further diluted 1:20 or 1:50 in sterile saline prior to i.p. injection that takes place immediately before the carrageenan injection. Three hours after injection the animals are resedated following the previously described procedure. Paw thickness is measured using a dial thickness gauge (Spring-dial, constant low pressure gauge, Mitutoyo, TG/L-1, 0.01 mm) and paw volume is measured using a plethysmometer (model #7150, Ugo Basile, Italy). Paw Edema is expressed as the difference between the right treated and the left untreated paws of the same animal, either as Δ Paw Volume (ΔPV) in millimeters cube or as Δ Paw Thickness (ΔPT) in millimeters. Each group comprises at least 10 animals. […] At the end of the study, animals are euthanized with an i.p. injection of 100 mg/kg pentobarbitone.
The differences among various treatment groups are analyzed by analysis of variance (ANOVA) followed by post-hoc Fisher test. A value of p<0.05 is considered to be statistically significant.
For sake of comparison, known anti-inflammatory drugs such as Celecoxib and Dexamethasone yield respectively in the range of relevant doses 7% and 26% reduction in paw thickness at 0.1 mg/kg, 16% and 31% at 0.25 mg/kg and 24% and 33% at 0.5 mg/kg. […] It should be kept in mind that these commercially available drugs display serious side effects that prevent chronic uses without complementary protective medication.

ICR male mice = assay: Tail flick model for acute peripheral pain, i.p.; type: in vivo, mouse
Description: ICR male mice (20-30 g average body weight, Harlan, Israel) were injected i.p. at the volume dose of 5 ml/kg. Each treatment group contained at least 6 animals. Morphine HCl was used as positive control at the final dose of 5 mg/kg. Its vehicle, saline, was also included as control. The test compounds were dissolved in CREMOPHOR EL®:ethanol and diluted 1:20 in saline prior to injection, this second type of vehicle was also included as negative control. The final dose injected varied from 0.1 to 10 mg/kg. At predetermined time points after treatment injection, the animals were placed in the tail flick system (Socrel, model DS 20). Animals were gently held while their tails were located above the photoelectric cell. The tails were then illuminated (21V) at 2 cm from the distal tip and the latency time, measured in seconds, was recorded in duplicates. At the end of the study, the animals were euthanized by i.p. injection of 100 mg/kg sodium pentobarbitone.
Two parameters were used to analyze the results, the latency time and the % of animals showing analgesia. […] The results in both cases are expressed as mean±SE. The differences between the latency times or the % of animals showing analgesia among various treatment groups was analyzed by analysis of variance (ANOVA) followed by post-hoc Tukey's test (for latency) or Fisher's exact test (for % animals). A value of p<0.05 is considered to be statistically significant.

[1] = 10 mg/kg i.p., 330 minutes (five and a half hours)

T1 sequence (P21554 whole entry): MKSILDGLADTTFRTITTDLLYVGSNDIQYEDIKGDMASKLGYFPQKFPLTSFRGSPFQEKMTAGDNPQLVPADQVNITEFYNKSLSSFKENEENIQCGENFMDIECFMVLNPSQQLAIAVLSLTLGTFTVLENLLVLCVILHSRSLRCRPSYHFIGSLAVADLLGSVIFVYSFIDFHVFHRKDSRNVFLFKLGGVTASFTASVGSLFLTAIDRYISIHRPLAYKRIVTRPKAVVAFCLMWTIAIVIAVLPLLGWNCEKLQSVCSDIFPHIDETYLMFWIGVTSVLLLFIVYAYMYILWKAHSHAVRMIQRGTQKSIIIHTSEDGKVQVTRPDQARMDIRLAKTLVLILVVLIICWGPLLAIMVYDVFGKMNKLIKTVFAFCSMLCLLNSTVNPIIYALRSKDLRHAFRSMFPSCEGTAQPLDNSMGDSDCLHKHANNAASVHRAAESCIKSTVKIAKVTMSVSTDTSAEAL
Chain of human CB2 receptor (P34972 whole entry): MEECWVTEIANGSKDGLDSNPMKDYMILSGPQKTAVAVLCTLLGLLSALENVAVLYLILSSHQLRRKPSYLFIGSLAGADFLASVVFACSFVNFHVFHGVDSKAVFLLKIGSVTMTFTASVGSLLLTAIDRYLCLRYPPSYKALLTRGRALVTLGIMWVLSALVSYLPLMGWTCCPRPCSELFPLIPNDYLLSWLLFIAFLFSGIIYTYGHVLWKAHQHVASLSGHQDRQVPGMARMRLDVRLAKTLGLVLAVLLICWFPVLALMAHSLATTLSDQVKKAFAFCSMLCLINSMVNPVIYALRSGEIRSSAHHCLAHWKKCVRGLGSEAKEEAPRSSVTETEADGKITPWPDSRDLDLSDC

Molecule | CB2/CB1 affinity ratio (human CB2 receptor) | IC50 (human CB2 receptor) [µM] | IC50 (human CB1 receptor) [µM] | also measured
CC1=CC(c2c(O)cc(-c3ccc(C(C)(C)C)cc3)cc2O)C2CC1C2(C)C (stereo not drawn) [Compound Q, 5-(1,1-Dimethyl-ethyl-phenyl)-2-(4,6,6-trimethyl-bicyclo[3.1.1]hept-3-en-2-yl)-benzene-1,3-diol] | 53 | 0.012 | 0.64 | –
CC(C)(c1ccc(Cl)cc1)c1cc(O)c(C2CC(=O)C3CC2C3(C)C)c(O)c1 (single isomer, unassigned; (-)) [Compound J, (−)-4-{4-[1-(4-Chloro-phenyl)-1-methyl-ethyl]-2,6-dihydroxy-phenyl]-6,6-dimethyl-bicyclo[3.1.1]heptan-2-one] | 60 | 0.011 | 0.659 | –
Cc1ccc(-c2cc(C(F)(F)F)nn2-c2ccc(S(N)(=O)=O)cc2)cc1 [Celecoxib, reference compound] | – | – | – | ΔLT (thermal stimulus) (Male Sprague Dawley rats): 0 s; reduction in paw thickness (Female Balb/c mice; 0.1 mg/kg): 7%; reduction in paw thickness (Female Balb/c mice; 0.25 mg/kg): 16%; reduction in paw thickness (Female Balb/c mice; 0.5 mg/kg): 24%
CCC(C)(CC)c1cc(O)c(C2CC(=O)C3CC2C3(C)C)c(O)c1 (single isomer, unassigned; (-)) [Compound M, (−)-4-[4-(1-Ethyl-1-methyl-propyl)-2,6-dihydroxy-phenyl]-6,6-dimethyl-bicyclo[3.1.1]heptan-2-one] | 96 | 0.0408 | 3.9 | –
O=C(O)Cc1ccccc1Nc1c(Cl)cccc1Cl [Diclofenac, reference compound] | – | – | – | ΔForce (tactile stimulus) (Male Sprague Dawley rats): 2 g; ΔLT (thermal stimulus) (Male Sprague Dawley rats): 0 s
C#CCCCCC(C)(C)c1cc(O)c([C@H]2CC(=O)[C@H]3C[C@@H]2C3(C)C)c(O)c1 [Compound F] | 38 | 0.000344 | 0.013 | –
CCCCC(C)(C)c1cc(O)c(C2C=C(COC(=O)C(C)(C)C)[C@H]3C[C@@H]2C3(C)C)c(O)c1 (stereo partly drawn) [Compound AH, 2,2-dimethylpropionic Acid-4-{4-[1,1-Dimethyl-pentyl]-2,6-dihydroxy-phenyl}-6,6-dimethyl-bicyclo[3.1.1]hept-2-en-2-yl Methyl Ester] | 9.5 | 0.042 | 0.398 | –
SR144528 [reference compound] | – | – | – | analgesic activity of the antagonists by themselves (Male Sprague Dawley rats): no analgesic activity
Cc1c(C(=O)NN2CCCCC2)nn(-c2ccc(Cl)cc2Cl)c1-c1ccc(Cl)cc1 [SR141716A, reference compound] | – | – | – | analgesic activity of the antagonists by themselves (Male Sprague Dawley rats): no analgesic activity
C#CCCCCC(C)(C)c1cc(O)c(C2C=C(C)C3CC2C3(C)C)c(O)c1 (single isomer, unassigned; (+)) [Compound E, (+)-5-(1,1-Dimethyl-hept-6-ynyl)-2-(4,6,6-trimethyl-bicyclo[3.1.1]hept-3-en-2-yl)-benzene-1,3-diol] | 33 | 0.000783 | 0.026 | –
CCCCCCC(C)(C)c1cc(O)c([C@@H]2CC(=O)C3CC2C3(C)C)c(O)c1 (single isomer, unassigned; (+)) [(+) enantiomer of compound A, reference compound] | 10 | – | – | latency time (ICR male mice; 4 mg/kg i.p., thirty minutes): 2.4 s
CC(C(=O)O)c1cccc(C(=O)c2ccccc2)c1 (stereo not drawn) [Ketoprofen, reference compound] | – | – | – | ΔForce (tactile stimulus) (Male Sprague Dawley rats): 7 g; ΔLT (thermal stimulus) (Male Sprague Dawley rats): 0 s
CC(C)(CCc1ccccc1)c1cc(O)c(C2CC(=O)C3CC2C3(C)C)c(O)c1 (stereo not drawn) [Compound G, 4-[4-(1,1-Dimethyl-3-phenyl-propyl)-2,6-dihydroxy-phenyl]-6,6-dimethyl-bicyclo[3.1.1]heptan-2-one] | 85 | 0.0066 | 0.563 | –
CCCCCCC(C)(C)c1cc(O)c(C2CC(=O)[C@H]3C[C@@H]2C3(C)C)c(OC(=O)/C=C/C(=O)O)c1 (single isomer, unassigned; (-)) [Compound Z, (−)-4-{4-[1,1-Dimethyl-heptyl]-2-fumarate-6-hydroxy-phenyl}-6,6-dimethyl-bicyclo[3.1.1]heptan-2-one] | 656 | 0.0012 | 0.816 | ΔForce (tactile stimulus) (Male Sprague Dawley rats): 2 g; % animals showing increased analgesia (ICR male mice; [1]): about 60%; latency time (ICR male mice; [1]): 5.2 s
